Where two headings read alike, the source gives them in different places.
Columns and labels:
[1] = tested on: Mycosphaerella graminicola; anamorph: Septoria tritici; assay: Fungicidal activity: leaf blotch of wheat (SEPTTR), wheat seedlings; format: in vivo; settings: Zymoseptoria tritici, 100 ppm, wheat
Description: Evaluation of Fungicidal Activity: Leaf Blotch of Wheat (Mycosphaerella Graminicola; Anamorph: Septoria tritici; Bayer Code […]) Technical grades of materials were dissolved in acetone, which were then mixed with nine volumes of water containing 110 ppm Triton X-100. The fungicide solutions were applied onto wheat seedlings using an automated booth sprayer to run-off. All sprayed plants were allowed to air dry prior to further handling. Wheat plants (variety Yuma) were grown from seed in a greenhouse in 50% mineral soil/50% soil-less Metro mix until the first leaf was fully emerged, with 7-10 seedlings per pot. These plants were inoculated with an aqueous spore suspension of Septoria tritici either prior to or after fungicide treatments. After inoculation the plants were kept in 100% relative humidity (one day in a dark dew chamber followed by two to three days in a lighted dew chamber at 20° C.) to permit spores to germinate and infect the leaf. The plants were then transferred to a greenhouse set at 20° C. for disease to develop. When disease symptoms were fully expressed on the 1st leaves of untreated plants, infection levels were assessed on a scale of 0 to 100 percent disease severity. Percent disease control was calculated using the ratio of disease severity on treated plants relative to untreated plants.

[2] = tested on: Puccinia triticina; synonym: Puccinia recondita f. sp. tritici; assay: Fungicidal activity: wheat brown rust (PUCCRT), wheat seedlings; format: in vivo; settings: 100 ppm, wheat
Description: Technical grades of materials were dissolved in acetone, which were then mixed with nine volumes of water containing 110 ppm Triton X-100. The fungicide solutions were applied onto wheat seedlings using an automated booth sprayer to run-off. All sprayed plants were allowed to air dry prior to further handling. Wheat plants (variety Yuma) were grown from seed in a greenhouse in 50% mineral soil/50% soil-less Metro mix until the first leaf was fully emerged, with 7-10 seedlings per pot. These plants were inoculated with an aqueous spore suspension of Septoria tritici either prior to or after fungicide treatments. After inoculation the plants were kept in 100% relative humidity (one day in a dark dew chamber followed by two to three days in a lighted dew chamber at 20° C.) to permit spores to germinate and infect the leaf. The plants were then transferred to a greenhouse set at 20° C. for disease to develop. When disease symptoms were fully expressed on the 1st leaves of untreated plants, infection levels were assessed on a scale of 0 to 100 percent disease severity. Percent disease control was calculated using the ratio of disease severity on treated plants relative to untreated plants. Evaluation of Fungicidal Activity: Wheat Brown Rust (Puccinia […]; Synonym: Puccinia recondita f. Sp. Tritici; Bayer Code PUCCRT) Wheat plants (variety Yuma) were grown from seed in a greenhouse in 50% mineral soil/50% soil-less Metro mix until the first leaf was fully emerged, with 7-10 seedlings per pot. These plants were inoculated with an aqueous spore suspension of Puccinia triticina either prior to or after fungicide treatments. After inoculation the plants were kept in a dark dew room at 22° C. with 100% relative humidity overnight to permit spores to germinate and infect the leaf. The plants were then transferred to a greenhouse set at 24° C. for disease to develop. Fungicide formulation, application and disease assessment followed the procedures as described in the Example A.

[3] = 24 h, 1 Day Protectant, read-out: Disease Control SEPTTR 1DP
[4] = 72 h, 3 Day Curative, read-out: Disease Control SEPTTR 3DC
[5] = 24 h, 1 Day Protectant, read-out: Disease Control PUCCRT 1DP
[6] = 72 h, 3 Day Curative, read-out: Disease Control PUCCRT 3DC

SMILES	pest or weed control at 100 ppm [1, 3]	pest or weed control at 100 ppm [1, 4]	pest or weed control at 100 ppm [2, 5]	pest or weed control at 100 ppm [2, 6]
COc1ccc(O[C@H]2[C@H](C)OC(=O)[C@@H](NC(=O)c3nccc(OC)c3O)COC[C@@H]2Oc2ccc(OC)cc2)cc1 [Compound 201]	80 to 100%	0 to 80%	80 to 100%	
CC[C@H]1OC(=O)[C@@H](NC(=O)c2nccc(OC)c2OCOC(C)=O)COC[C@H](OCC(C)C)[C@H]1OCC(C)C [Compound 20]	0 to 80%	0 to 80%		
COc1ccc(O[C@H]2[C@H](C)OC(=O)[C@@H](NC(=O)c3nccc(OC)c3O)COC[C@@H]2OC(=O)C(C)C)cc1 [Compound 199]	0 to 80%		80 to 100%	
CC[C@H]1OC(=O)[C@H](NC(=O)c2nccc(OC)c2O)COC[C@H](OCC(C)C)[C@H]1OCC(C)C [Compound 22]	0 to 80%	0 to 80%		
CC[C@H]1OC(=O)[C@H](NC(=O)c2nccc(OC)c2OCOC(C)=O)COC[C@H](OCC(C)C)[C@H]1OCC(C)C [Compound 24]	0 to 80%	0 to 80%	0 to 80%	0 to 80%
CCOCC(=O)OCOc1c(OC)ccnc1C(=O)N[C@H]1COC[C@H](Oc2ccc(F)cc2)[C@@H](OCC(C)C)[C@H](C)OC1=O [Compound 227]	80 to 100%	80 to 100%	80 to 100%	80 to 100%
COc1ccnc(C(=O)N[C@H]2COC[C@H](Oc3ccccc3)[C@@H](OC3CCCC3)[C@H](C)OC2=O)c1OCOC(C)=O [Compound 224]	80 to 100%	80 to 100%	80 to 100%	80 to 100%
COc1ccnc(C(=O)N[C@H]2CO[C@@H](C)[C@H](OCC(C)C)[C@@H](OCC(C)C)COC2=O)c1O [Compound 4]	80 to 100%	80 to 100%	80 to 100%	
COc1ccnc(C(=O)N[C@H]2COC[C@@H](OCc3ccccc3)[C@H](OCc3ccccc3)[C@H](C)OC2=O)c1O [Compound 38]	0 to 80%	0 to 80%	80 to 100%	0 to 80%
COc1ccnc(C(=O)N[C@H]2COC[C@@H](OCc3ccccc3)[C@H](OCc3ccccc3)[C@H](C)OC2=O)c1OCOC(C)=O [Compound 40]	0 to 80%	0 to 80%	80 to 100%	0 to 80%
COc1ccnc(C(=O)N[C@H]2COC[C@H](OCC(C)C)[C@@H](Oc3cccc(Cl)c3)[C@H](C)OC2=O)c1O [Compound 194]			80 to 100%	80 to 100%
COc1ccnc(C(=O)N[C@H]2COC[C@H](Oc3ccc(C)cc3)[C@@H](Oc3ccc(C)cc3)[C@H](C)OC2=O)c1OCOC(C)=O [Compound 226]	80 to 100%	80 to 100%	80 to 100%	80 to 100%
COc1ccnc(C(=O)N[C@H]2COC[C@H](OCCCc3ccccc3)[C@@H](OCCCc3ccccc3)[C@H](C)OC2=O)c1O [Compound 59]	80 to 100%	0 to 80%	80 to 100%	80 to 100%

Source: patent US9144239B2, “Macrocyclic picolinamides as fungicides” (DOW AGROSCIENCES LLC, priority 2012, dated 2015)
